This passage reports IC50 results from patent US8802861B2, “Thiazole derivatives and use thereof” (Merck Serono SA, priority 2004, dated 2014).

Molecules are shown by their SMILES.

For one assay, the target named is PI3Kγ (Homo sapiens (Human), UniProt P48736). As to the kind of experiment: High Throughput PI3K Lipid Kinase Assay (scintillation proximity assay). The conditions noted are these: Human recombinant GST-PI3Kγ, SPA. It is filed as biochemical. The source says: a) High Throughput PI3K Lipid Kinase Assay (Binding Assay): The efficacy of compounds of the invention in inhibiting the PI3K induced-lipid phosphorylation may be tested in the following binding assay. The assay combines the scintillation proximity assay technology (SPA, Amersham) with the capacity of neomycin (a polycationic antibiotic) to bind phospholipids with high affinity and specificity. The Scintillation Proximity Assay is based on the properties of weakly emitting isotopes (such as ^3H, ^125I, ^33P). Coating SPA beads with neomycin allows the detection of phosphorylated lipid substrates after incubation with recombinant PI3K and radioactive ATP in the same well, by capturing the radioactive phospholipids to the SPA beads through their specific binding to neomycin. […] After incubation at room temperature for 180 minutes, with gentle agitation, the reaction is stopped by addition of 60 μl of a solution containing 100 μg of neomycin-coated PVT SPA beads in PBS containing ATP 10 mM and EDTA 5 mM. The assay is further incubated at room temperature for 60 minutes with gentle agitation to allow binding of phospholipids to neomycin-SPA beads. After precipitation of the neomycin-coated PVT SPA beads for 5 minutes at 1500×g, radioactive PtdIns(3)P is quantified by scintillation counting in a Wallac MicroBetaTM plate counter. The values indicated in Table I below refer to the IC50 (nM) with respect to PI3Kγ, i.e. the amount necessary to achieve 50% inhibition of said target. Said values show a considerable inhibitory potency of thiazole compounds with regard to PI3Kγ.
PI3Kγ, sequence (P48736 whole entry): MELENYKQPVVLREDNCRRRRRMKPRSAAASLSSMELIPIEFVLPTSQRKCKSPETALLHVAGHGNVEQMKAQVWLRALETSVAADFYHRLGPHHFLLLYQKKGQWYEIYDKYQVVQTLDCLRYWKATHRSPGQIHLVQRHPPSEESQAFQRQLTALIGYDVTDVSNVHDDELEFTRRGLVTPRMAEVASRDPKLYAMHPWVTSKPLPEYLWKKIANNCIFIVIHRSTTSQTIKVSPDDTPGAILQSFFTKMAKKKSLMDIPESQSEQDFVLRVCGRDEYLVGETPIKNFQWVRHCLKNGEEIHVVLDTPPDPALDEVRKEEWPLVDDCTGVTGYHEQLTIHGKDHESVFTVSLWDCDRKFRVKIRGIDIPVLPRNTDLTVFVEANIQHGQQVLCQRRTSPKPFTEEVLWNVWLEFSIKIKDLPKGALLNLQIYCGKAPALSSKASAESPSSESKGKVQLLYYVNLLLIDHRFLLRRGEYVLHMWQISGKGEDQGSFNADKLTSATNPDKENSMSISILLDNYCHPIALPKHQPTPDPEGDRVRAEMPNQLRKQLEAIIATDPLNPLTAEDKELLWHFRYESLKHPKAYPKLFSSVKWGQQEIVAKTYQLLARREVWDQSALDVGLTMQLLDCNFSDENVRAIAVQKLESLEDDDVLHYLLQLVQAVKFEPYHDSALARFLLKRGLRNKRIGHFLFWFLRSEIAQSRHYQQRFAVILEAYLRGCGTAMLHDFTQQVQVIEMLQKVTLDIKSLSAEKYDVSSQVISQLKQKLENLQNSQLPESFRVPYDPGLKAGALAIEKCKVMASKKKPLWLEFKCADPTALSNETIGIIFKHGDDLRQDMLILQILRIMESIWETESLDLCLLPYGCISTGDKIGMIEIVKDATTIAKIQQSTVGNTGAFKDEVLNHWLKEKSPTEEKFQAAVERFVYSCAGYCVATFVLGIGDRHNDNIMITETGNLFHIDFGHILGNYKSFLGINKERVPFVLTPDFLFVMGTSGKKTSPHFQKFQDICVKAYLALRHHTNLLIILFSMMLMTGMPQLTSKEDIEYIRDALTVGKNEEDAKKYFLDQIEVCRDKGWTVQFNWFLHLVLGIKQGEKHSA
Consider `CC(=O)Nc1nc(C)c(-c2csc(N3CCCCC3)n2)s1` [Example 5, N-(4-methyl-2-piperidin-1-yl-4,5-bi-1,3-thiazol-2-yl)acetamide], for which the IC50 (usually the concentration at which inhibition is half-maximal) was 630 nM.

As to `C=CCNc1nc(-c2sc(NC(C)=O)nc2C)cs1` [Example 6, N-[2-(allylamino)-4-methyl-4,5-bi-1,3-thiazol-2-yl]acetamide], the IC50 came to 202 nM. As for `CC(=O)Nc1nc(C)c(-c2csc(Nc3cccnc3)n2)s1` [Example 7, N-[4-methyl-2-(Pyridin-3-ylamino)-4,5-bi-1,3-thiazol-2-yl]acetamid], the IC50 came to 94 nM.

For `CC(=O)Nc1nc(C)c(-c2csc(N)n2)s1` [Example 14, N-(2-amino-4-methyl-4,5-bi-1,3-thiazol-2-yl)acetamide], the IC50 was determined as 575 nM. On to `CC(=O)Nc1nc(C)c(-c2csc(N3CCOCC3)n2)s1` [Example 16, N-(4-methyl-2-morpholin-4-yl-4,5-bi-1,3-thiazol-2-yl)acetamide], for which the IC50 was 844 nM.

For the molecule `CC(=O)Nc1nc(C)c(-c2csc(NC(C)(C)C)n2)s1` [Example 22, N-[2-(tert-butylamino)-4-methyl-4,5-bi-1,3-thiazol-2-yl]acetamide], the IC50 came out at 314 nM.

For the molecule `CC(=O)Nc1nc(C)c(-c2csc(NCCN3CCOCC3)n2)s1` [Example 31, N-{4-methyl-2-[(2-morpholin-4-ylethyl)amino]-4,5-bi-1,3-thiazol-2-yl}acetamide], the IC50 was found to be 871 nM. `COCCNc1nc(-c2sc(NC(C)=O)nc2C)cs1` [Example 33, N-{2-[(2-methoxyethyl)amino]-4-methyl-4,5-bi-1,3-thiazol-2-yl}acetamide]: the IC50 was 355 nM. Consider `CC(=O)Nc1nc(C)c(-c2csc(NCC(O)c3ccccc3)n2)s1` (centres unmarked) [Example 37, N-{2-[(2-hydroxy-2-phenylethyl)amino]-4-methyl-4,5-bi-1,3-thiazol-2-yl}acetamide], for which the IC50 was found to be 70 nM. Turning to `CC(=O)Nc1nc(C)c(-c2csc(Nc3cccnc3F)n2)s1` [Example 43, N-{2-[(2-fluoropyridin-3-yl)amino]-4′-methyl-4,5′-bi-1,3-thiazol-2′-yl}acetamide], the IC50 was found to be 38 nM.

For `CCOC(CCNc1nc(-c2sc(NC(C)=O)nc2C)cs1)OCC` [Example 45, N-{2-[(3,3-diethoxypropyl)amino]-4′-methyl-4,5′-bi-1,3-thiazol-2′-yl}acetamide], the IC50 was determined as 612 nM. Same read-out and setting: the same measure for `CC(=O)Nc1nc(C)c(-c2csc(NCCc3nnc(O)o3)n2)s1` [Example 56, 5-(2-{[2′-(acetylamino)-4′-methyl-4,5′-bi-1,3-thiazol-2-yl]amino}ethyl)-1,3,4-oxadiazol-2-olate]: 377 nM; for `CC(=O)NCCNc1nc(-c2sc(NC(C)=O)nc2C)cs1` [Example 77, N-(2-{[2-(acetylamino)ethyl]amino}-4′-methyl-4,5′-bi-1,3-thiazol-2′-yl)acetamide]: 189 nM; for `CC(=O)Nc1nc(C)c(-c2csc(Nc3cccc(CCC(=O)O)c3)n2)s1` [Example 136, 3-(3-{[2′-(acetylamino)-4′-methyl-4,5′-bi-1,3-thiazol-2-yl]amino}phenyl) propanoic acid]: 64 nM.

A further assay relates to Akt/PKB phosphorylation in Raw 264-7 macrophages. In words: Cell based ELISA to monitor PI3K inhibition (Akt/PKB phosphorylation after Complement 5a stimulation). The conditions noted are these: Mus musculus, RAW264.7, read-out: Cell Assay (P-Akt, Elisa) IC50 [μM]. As to the method: b) Cell Based ELISA to Monitor PI3K Inhibition:
The efficacy of compounds of the invention in inhibiting the PI3K induced AKt/PKB phosphorylation may be tested in the following cell based assay.
Measurement of Akt/PKB phosphorylation in macrophages after stimulation with Complement 5a: Raw 264: Raw 264-7 macrophages (cultured in DMEM-F12 medium containing 10% Fetal Calf serum and antibiotics) are plated at 20'000 cells/well in a 96 MTP 24 h before cell stimulation. Previous to the stimulation with 50 nM of Complement 5a during 5 minutes, Cells are serum starved for 2 h, and pretreated with inhibitors for 20 minutes. After stimulation cells are fixed in 4% formaldehyde for 20 minutes and washed 3 times in PBS containing 1% Triton X-100 (PBS/Triton). Endogenous peroxidase is blocked by a 20 minutes incubation in 0.6% H2O2 and 0.1% Sodium Azide in PBS/Triton and washed 3 times in PBS/Triton. Cells are then blocked by 60 minutes incubation with 10% fetal calf serum in PBS/Triton. Next, phosphorylated AKt/PKB is detected by an overnight incubation at 4° C. with first antibody (anti phospho Serine 473 Akt IHC, Cell Signaling) diluted 800-fold in PBS/Triton, containing 5% bovine serum albumin (BSA). After 3 washes in PBS/Triton, cells are incubated for 60 minutes with a peroxidase conjugated goat-anti-rabbit antibody (1/400 dilution in PBS/Triton, containing 5% BSA), washed 3 times in PBS/Triton, and 2 times in PBS and further incubated in 100 μl of substrate reagent solution (R&D) for 20 minutes. The reaction is stopped by addition of 50 μl of 1 M SO4H2 and absorbance is read at 450 nm.
The values indicated in Table II below reflect the percentage of inhibition of AKT phoshorylation as compared to basal level. Said values show a clear effect of the thiazole compounds on the activation of AKT phosphorylation in macrophages.
In general terms: In an ELISA, binding on a coated surface is turned into a signal by an enzyme label.
Regarding `CC(=O)Nc1nc(C)c(-c2csc(Nc3cccc(-c4nnc(O)o4)c3)n2)s1` [Example 53, N-(2-{[3-(5-hydroxy-1,3,4-oxadiazol-2-yl)phenyl]amino}-4′-methyl-4,5′-bi-1,3-thiazol-2′-yl)acetamide], the IC50 is 1.51 µM.

The assay is the same for the next values; noted with them: Mus musculus, RAW264.7; Raw 264-7 macrophages, 50 nM Complement 5a; read-out: Cell Assay (P-Akt, Elisa) IC50.
Regarding `CC(=O)Nc1nc(C)c(-c2csc(Nc3cccc(C(=O)O)c3)n2)s1` [Example 1], the IC50 turned out to be 3.18 µM. As to `CC(=O)Nc1nc(C)c(-c2csc(Nc3cccnc3)n2)s1` [Example 7, N-[4-methyl-2-(Pyridin-3-ylamino)-4,5-bi-1,3-thiazol-2-yl]acetamid], the IC50 was determined as 1.64 µM. `CC(=O)Nc1nc(C)c(-c2csc(Nc3ccc(Cl)nc3)n2)s1` [Example 24, N-{2-[(6-chloropyridin-3-yl)amino]-4-methyl-4,5-bi-1,3-thiazol-2-yl}acetamide]: the IC50 came out at 0.66 µM. The same measure, in the same setting: the same measure for `CC(=O)Nc1nc(C)c(-c2csc(NCCC(N)=O)n2)s1` [Example 84]: 1.84 µM.

The next assay deals with Class I PI3-kinases.
Experiment: not given
The conditions noted are these: Fruman et al., 1998; read-out: IC50 against each of the various Class I PI3-kinases; cited from earlier work.
Turning to `COC[C@H]1OC(=O)c2coc3c2[C@@]1(C)C1=C(C3=O)[C@@H]2CCC(=O)[C@@]2(C)C[C@H]1OC(C)=O` [wortmannin], the IC50 is 1 to 10 nM.
